Tests used:
TNF-α = assay: In vitro mRNA expression of TNF-α (transrepression parameter) in unstimulated human PBMC cultures; format: cell-based; details: for Transrepression vs. Prednisolone TNF-α: mRNA, PBMC cultures, prednisolone/GR ligand quotient
From the text: (§1) Regarding the definition of suitable parameters, the regulation, mediated by standard glucocorticoids and selective GR ligands, of more than 50 genes in primary human immune cells was examined in a broad screening approach. Selected genes were further characterized in vitro and in vivo in kinetic experiments. […] Decisive criteria for the parameter selection were 1) the consistent reflection of transactivation or transrepression properties of GR ligands, 2) the detection of the regulation in non-stimulated immune cells, and 3) the quick reaction of the gene expression in in vitro assays (the 4-hour time period was used for the screening), and the good and enduring detectability after in vivo application of GR ligands. These properties make it likely that a direct regulation of the gene expression by the GR ligands will take place and that the parameters will be usable in in vivo studies (e.g., as biomarkers).
(§2) To have a comparison with a standard GK, the GR-ligand-influenced gene expressions for these parameters were normalized to the gene expression after treatment with the standard GK, prednisolone. […] It is clear to one skilled in the art that the normalization could also in principle be related to any other glucocorticoid.
(§3) For gene suppression, the “prednisolone/GR ligand” quotient was derived for purposes of normalization, i.e., a lower value (<1) indicates a relatively weaker suppression by the GR ligands (higher values in the residual gene expression).
(§4) For the mRNA detection, the total RNA was isolated from the respective samples (human PBMC or human whole blood or spleen cells from mice), transcribed in the cDNA and amplified and detected below by means of Real-time TaqMan-PCR (Applied Biosystems). A relative quantification in comparison to the expression of the “house-keeping” gene HPRT was carried out. In each case, the ratio of the result for the GR ligands to the result of the vehicle control is plotted.

glutamine synthetase = assay: In vivo expression of glutamine synthetase in spleen cells of treated mice; details: after 24 hours
Protocol: as §4
(§5) The in vivo regulation of the expression of selected genes was characterized in the spleen cells of SEGRA-treated mice after 24 hours.

CD163 [1] = assay: In vivo expression of CD163 in spleen cells of treated mice; details: after 24 hours
Protocol: as §4, §5

[2] = tested on: tyrosinaminotransferase (TAT); assay: Induction of tyrosinaminotransferase (TAT) activity in rat hepatoma cells (H4IIE3); format: cell-based
Protocol: In a second transactivation system, the induction of the tyrosinaminotransferase (TAT) by glucocorticoids is determined. In the promoter of the gene for the TAT, GREs are also located, so that this gene is expressed in an enhanced form by binding of the ligand-activated GR. To this end, rat hepatoma cells (H4IIE3) are treated for 24 hours with test and reference substances, and then the TAT activity is determined by photometry. For the two assays, both the detection of agonistic actions of the SEGRA substances in the transactivation and the detection of antagonistic actions in the induction of the parameters by other GR ligands are possible.
(§6) The activities of SEGRA substances in the respective transactivation and transrepression systems are determined in comparison to the activities of the reference substance dexamethasone.

FKBP51 [3] = assay: Time-dependent FKBP51 mRNA expression in human whole-blood cultures; format: cell-based
Protocol: as §4
(§7) For the parameters CD163 and FKBP51, in addition, the time-dependent influence of CR ligands on the mRNA expression in human whole-blood cultures was examined.

inflammatory cytokines = assay: In vivo expression of inflammatory cytokines in spleen cells of treated mice; details: after 24 hours, vs vehicle control
Protocol: as §4, §5

IL-1β = assay: In vitro mRNA expression of IL-1β (transrepression parameter) in unstimulated human PBMC cultures; format: cell-based; details: for Transrepression vs. Prednisolone IL-1β: mRNA, PBMC cultures, prednisolone/GR ligand quotient
From the text: as §1, §2, §3, §4

MMTV promoter = MMTV promoter luciferase transactivation assay in HeLa cells; format: cell-based, human
From the text: The promoter of the mouse mammary tumor virus (MMTV) contains specific binding sites for the activated GR (so-called GREs). This promoter was cloned before a reporter gene (luciferase), and the construct was integrated in a stable manner in the genome of the human cell line HeLa (cervix carcinoma cells). By adding test and reference substances, the MMTV promoter is activated, and the luciferase, whose activity can be detected by means of photometric measurement, is expressed.
as §6

GILZ = assay: In vivo expression of GILZ in spleen cells of treated mice; details: after 24 hours
Protocol: as §4, §5

CD163 [4] = assay: Time-dependent CD163 mRNA expression in human whole-blood cultures; format: cell-based
Protocol: as §4, §7

CD163 [5] = assay: In vitro mRNA expression of CD163 (transactivation parameter) in unstimulated human PBMC cultures; format: cell-based; details: for Transactivation vs. Prednisolone CD163: mRNA, PBMC cultures, GR-ligand/prednisolone quotient
From the text: as §1, §2, §3, §4

FKBP51 [6] = assay: In vitro mRNA expression of FKBP51 (transactivation parameter) in unstimulated human PBMC cultures; format: cell-based; details: for Transactivation vs. Prednisolone FKBP51: mRNA, PBMC cultures, GR-ligand/prednisolone quotient
From the text: as §1, §2, §3, §4

FKBP51 [7] = assay: In vivo expression of FKBP51 in spleen cells of treated mice; details: after 24 hours
Protocol: as §4, §5

[8] = tested on: transactivation parameters; assay: Gene induction in human PBMC (transactivation profile); format: cell-based; details: mRNA
Protocol: as §4
Below, by way of example, the application of the characterization of the transactivation and transrepression activity of selective GR ligands by means of gene expression analysis in primary immune cells is shown comparatively based on two SEGRA substances, the agonist in the transactivation, compound 1, and the antagonist in the transactivation, compound 2. The molecular mechanism of these substances had been previously characterized in the usual assays (see 5.2 and 5.3). The gene expression analysis was performed by means of quantitative Real-Time-TaqMan-PCR. The ratios (mean value±standard deviation) of the results for the GR ligands to the results for the vehicle control are shown.
In contrast to this, the different transactivation profile of the SEGRA substances is reflected in differing degrees of gene induction.

[9] = human PBMC cultures, single substance
[10] = human PBMC cultures, antagonism

Compound: Cc1noc(=O)c2ccc(NC(=O)C(O)(CC(C)(C)c3cc(F)ccc3C(F)(F)F)C(F)(F)F)cc12 (centres unmarked) [compound 2]
- suppression of the mRNA expression of TNF-α (in words) (TNF-α; [9]): suppression
- expression of glutamine synthetase (glutamine synthetase): reduces the expression
- expression of CD163 (CD163 [1]): reduces the expression
- Emax ([2]; Rattus norvegicus, at a concentration of 1 μmol, read-out: antagonism of the dexamethasone-induced TAT activity, % of the maximum effect of RU 486): 35%
- effectiveness, induction of the TAT activity, % of the maximum dexamethasone effect ([2]; agonism, rat hepatoma cells, n=2): 43.5±10.6%
- EC50 ([2]; agonism, rat hepatoma cells, n=2, read-out: power, induction of the TAT activity): 67 ± 10 nM
- behaviour in the TAT promoter (in words) ([2]; rat hepatoma cells): partial agonist
- time-dependent influence on FKBP51 mRNA expression (FKBP51 [3]): did not lead to the increase of the gene expression
- inhibition of the inflammatory cytokines (transrepression) (inflammatory cytokines): less pronounced
- suppression of the mRNA expression of IL-1β (in words) (IL-1β; [9]): suppression
- antagonistic effect in the MMTV promoter assay (in words) (MMTV promoter): clear antagonist
- IC50 (MMTV promoter; Homo sapiens, antagonism, n=3, read-out: power, antagonism of the MMTV promoter activity induced by dexamethasone): 85 ± 12 nM
- effectiveness, antagonism of dexamethasone-induced MMTV promoter activity, % of the maximum effect of the GR antagonist RU 486 (MMTV promoter; antagonism, n=3): 119±3.6%
- expression of GILZ (GILZ): reduces the expression
- time-dependent influence on CD163 mRNA expression (CD163 [4]): did not lead to the increase of the gene expression
- CD163 expression in all batches (CD163 [5]; human PBMC cultures, alone and with prednisolone): reduced
- induction of CD163 on simultaneous administration with prednisolone, in comparison to prednisolone alone (CD163 [5]; [10]): clearly lower
- induction of CD163 (in words) (CD163 [5]; [9]): not
- induction of FKBP51 on simultaneous administration with prednisolone, in comparison to prednisolone alone (FKBP51 [6]; [10]): clearly lower
- expression of FKBP51 (FKBP51 [7]): reduces the expression
- gene induction [8]: lower gene induction or no gene induction

Compound: C[C@@H]1C[C@H]2[C@@H]3CCC4=CC(=O)C=C[C@]4(C)[C@@]3(F)[C@@H](O)C[C@]2(C)[C@@]1(O)C(=O)CO [Dexamethasone, dexamethasone]
- Transrepression vs. Prednisolone TNF-α (TNF-α; 1 hour): 0.80
- Transrepression vs. Prednisolone TNF-α (TNF-α; 2 hours): 0.85
- Transrepression vs. Prednisolone TNF-α (TNF-α; 4 hours): 1.01
- Transrepression vs. Prednisolone TNF-α (TNF-α; 12 hours): 1.00
- Transrepression vs. Prednisolone TNF-α (TNF-α; 24 hours): 0.97
- Transrepression vs. Prednisolone IL-1β (IL-1β; 1 hour): 0.61
- Transrepression vs. Prednisolone IL-1β (IL-1β; 2 hours): 0.69
- Transrepression vs. Prednisolone IL-1β (IL-1β; 4 hours): 1.27
- Transrepression vs. Prednisolone IL-1β (IL-1β; 12 hours): 0.96
- Transrepression vs. Prednisolone IL-1β (IL-1β; 24 hours): 1.16
- Transactivation vs. Prednisolone CD163 (CD163 [5]; 1 hour): 1.02
- Transactivation vs. Prednisolone CD163 (CD163 [5]; 2 hours): 1.89
- Transactivation vs. Prednisolone CD163 (CD163 [5]; 4 hours): 1.34
- Transactivation vs. Prednisolone CD163 (CD163 [5]; 12 hours): 1.13
- Transactivation vs. Prednisolone CD163 (CD163 [5]; 24 hours): 1.04
- Transactivation vs. Prednisolone FKBP51 (FKBP51 [6]; 1 hour): 0.89
- Transactivation vs. Prednisolone FKBP51 (FKBP51 [6]; 2 hours): 1.13
- Transactivation vs. Prednisolone FKBP51 (FKBP51 [6]; 4 hours): 1.08
- Transactivation vs. Prednisolone FKBP51 (FKBP51 [6]; 12 hours): 1.07
- Transactivation vs. Prednisolone FKBP51 (FKBP51 [6]; 24 hours): 1.05

Reference: US20060275800A1, “Process for characterization of the transactivation and transrepression activity of glucocorticoid receptor ligands in primary immune cells” (priority 2005, published 2006)
